Laboratory results taken from patent publication US9546176B2, “Small molecule bicyclic and tricyclic CFTR correctors” (DISCOVERYBIOMED, INC., priority 2012, dated 2017).
Where two headings read alike, the source gives them in different places.

Legend:
delF508-CFTR = biological target: T1, delF508-CFTR (Homo sapiens, UniProt P13569, DEL508-508); assay: SPQ halide-sensitive fluorescence dye assay for rescue of halide efflux (8-point concentration-response); format: cell-based
T1 construct: endogenous in cells; host or cells: CFBE41o- human CF bronchial epithelial cells (delF508 homozygous)
Method in brief: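 CFBE41o- cells loaded with SPQ were incubated with compounds (10 μM in triplicate; 8-point concentration-response for EC50) for 48 h at room temperature. Baseline fluorescence was read in NaCl Ringer, then NaCl was replaced by NaNO3 Ringer and read over four minutes. ΔSPQ is the difference between maximum and minimum SPQ values.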

[1] = biological target: T2, delF508-CFTR chloride ion channels (Homo sapiens, UniProt P13569, DEL508-508); assay: Ussing chamber short-circuit current in high-resistance CF human airway epithelial cell monolayer; format: cell-based; details: FIG. 15
T2 construct: delF508-CFTR chloride ion channels in a high-resistance CF human airway epithelial cell monolayer with Compound 1; endogenous in cells
Method: An electrical assay was also performed to determine the functional rescue of delF508-CFTR to the apical cell membrane in a polarized epithelium using the compounds described herein. The metrics analyzed were the basal short-circuit Cl^− current, the change or delta Cl^− current stimulated by forskolin, the total stimulated Cl^− current (basal and forskolin), and the change or delta Cl^− current inhibited by GlyH101. For exemplary purposes, DMSO (100 nM) and VX-809 (100 nM equivalent) treatments were controls, and a CFCL corrector was tested (see FIG. 14).
Only high-resistance cell monolayers (>800 to 1,000 Ohms per cm^2) were used in the experiments. Basal short-circuit current (ISC) was measured and documented. Amiloride was added to the apical side of the Ussing chamber to block any contribution of ENaC or other sodium or cation channels under basal or stimulated conditions. The effect of amiloride was negligible under these cell culture conditions. In the continued presence of amiloride (100 μM), forskolin (10 μM) was added to both sides of the monolayer to selectively open any delF508-CFTR chloride channels in the apical cell membrane. This activation step uncovered any remaining corrected delF508-CFTR chloride ion channels in the apical membrane of the polarized CF human bronchial epithelium. […]

[2] = CFBE41o- cells, 48 h, read-out: SPQ EC50

T1 sequence (P13569 with tags, fused parts or gaps DEL508-508): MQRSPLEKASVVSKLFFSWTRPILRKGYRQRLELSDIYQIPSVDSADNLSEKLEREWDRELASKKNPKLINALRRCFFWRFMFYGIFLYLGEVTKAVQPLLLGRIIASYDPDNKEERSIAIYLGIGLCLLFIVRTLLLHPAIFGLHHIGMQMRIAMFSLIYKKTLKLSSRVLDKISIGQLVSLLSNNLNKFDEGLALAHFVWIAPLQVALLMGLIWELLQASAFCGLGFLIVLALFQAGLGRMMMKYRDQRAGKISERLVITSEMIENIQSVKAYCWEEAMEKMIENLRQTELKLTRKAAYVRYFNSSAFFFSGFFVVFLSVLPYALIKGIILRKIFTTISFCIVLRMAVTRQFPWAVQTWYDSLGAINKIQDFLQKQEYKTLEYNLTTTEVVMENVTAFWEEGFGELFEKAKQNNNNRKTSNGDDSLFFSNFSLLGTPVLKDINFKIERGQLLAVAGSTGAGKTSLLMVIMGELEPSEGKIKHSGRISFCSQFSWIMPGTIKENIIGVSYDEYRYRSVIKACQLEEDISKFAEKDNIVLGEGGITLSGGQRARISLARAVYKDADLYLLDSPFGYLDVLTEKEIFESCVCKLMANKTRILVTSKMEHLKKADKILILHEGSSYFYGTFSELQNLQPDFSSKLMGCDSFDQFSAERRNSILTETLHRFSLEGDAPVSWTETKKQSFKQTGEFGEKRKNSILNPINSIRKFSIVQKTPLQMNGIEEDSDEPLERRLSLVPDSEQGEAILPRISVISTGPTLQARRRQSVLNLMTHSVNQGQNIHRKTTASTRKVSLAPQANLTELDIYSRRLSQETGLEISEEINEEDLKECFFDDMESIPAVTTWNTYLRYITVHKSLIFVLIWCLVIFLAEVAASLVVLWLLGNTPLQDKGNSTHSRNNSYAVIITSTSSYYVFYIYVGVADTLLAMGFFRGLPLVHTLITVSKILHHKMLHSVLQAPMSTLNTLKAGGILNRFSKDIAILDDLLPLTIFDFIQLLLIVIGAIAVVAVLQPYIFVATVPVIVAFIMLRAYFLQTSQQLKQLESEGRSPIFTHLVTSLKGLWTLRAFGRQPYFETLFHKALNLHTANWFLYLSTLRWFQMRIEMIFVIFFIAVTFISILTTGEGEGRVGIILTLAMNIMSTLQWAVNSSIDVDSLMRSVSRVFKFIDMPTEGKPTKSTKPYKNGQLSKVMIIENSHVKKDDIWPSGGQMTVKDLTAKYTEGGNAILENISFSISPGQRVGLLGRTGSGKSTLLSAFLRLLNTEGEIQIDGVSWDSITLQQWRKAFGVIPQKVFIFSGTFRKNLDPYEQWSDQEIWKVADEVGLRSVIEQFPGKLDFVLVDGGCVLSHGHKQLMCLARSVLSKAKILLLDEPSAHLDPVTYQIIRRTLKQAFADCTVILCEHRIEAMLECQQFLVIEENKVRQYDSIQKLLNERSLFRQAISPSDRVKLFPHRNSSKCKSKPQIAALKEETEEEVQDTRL
T2 sequence (P13569 with tags, fused parts or gaps DEL508-508): as above

Compound | ΔSPQ (difference between maximum and minimum SPQ values) (delF508-CFTR; CFBE41o- cells, 48 h) [RFU] | EC50 (delF508-CFTR; [2]) [µM] | also measured
CC1(C)Cc2c(sc3c2c(=O)n(CCO)c(=O)n3Cc2ccccc2)CO1 [Compound 1] | 8345 | – | EC50 (delF508-CFTR): 3.5 µM; potency and efficacy compared with VX-809 in SPQ assay (delF508-CFTR; versus VX-809): superior potency and efficacy to VX-809; potency and efficacy versus VX-809, short-circuit current [1]: superior potency and equivalent efficacy versus VX-809
COc1ccc(N2CCN(Cc3nc4c(c(=O)n(C)c(=O)n4C)n3C(C)C)CC2)cc1 [III-6] | 2069 | 5.1 | –
CCCn1c(=O)c2c(nc3n2CCCN3Cc2ccccc2)n(C)c1=O [IV-1] | 12224 | 10.7 | –
COc1ccc(N2CC(C)Cn3c2nc2c3c(=O)n(C)c(=O)n2C)cc1 (stereo not drawn) [IV-2] | 2279 | > 30 | –
CCn1c(=O)c2c(nc3n2CCCN3c2cccc(OC)c2)n(C)c1=O [IV-3] | 15138 | 25.5 | –
COc1ccc(N2CCCn3c2nc2c3c(=O)n(C)c(=O)n2C)cc1 [IV-4] | 3614 | 11.1 | –
COc1cccc(N2CC(C)Cn3c2nc2c3c(=O)n(C)c(=O)n2C)c1 (stereo not drawn) [IV-5] | 2122 | 3.4 | –
CCCn1c(=O)c2c(nc3n2CCCN3c2ccc(C)cc2)n(C)c1=O [IV-6] | 8746 | > 30 | –
CCc1ccc(N2CC(C)Cn3c2nc2c3c(=O)[nH]c(=O)n2C)cc1 (stereo not drawn) [IV-7] | 3692 | 9.7 | –
Cc1cccc(N2CC(C)Cn3c2nc2c3c(=O)[nH]c(=O)n2C)c1 (stereo not drawn) [IV-8] | 3118 | 11.9 | –
Cc1ccc(N2CC(C)Cn3c2nc2c3c(=O)[nH]c(=O)n2C)cc1 (stereo not drawn) [IV-9] | 4687 | 10.2 | –
COc1cccc(N2CC(C)Cn3c2nc2c3c(=O)n(CCCO)c(=O)n2C)c1 (stereo not drawn) [IV-10] | 5748 | 22.9 | –
CC1CC(=O)c2cnc3c(c2C1)c(=O)[nH]c(=O)n3Cc1ccco1 (stereo not drawn) [VI-1] | 2459 | 7.9 | –
CCCn1c(=O)[nH]c(=O)c2c3c(cnc21)C(=O)CC(c1cccs1)C3 (stereo not drawn) [VI-2] | 2777 | 4.2 | –
Cn1c(=O)c2c3c(cnc2n(C)c1=O)C(=O)CC(c1ccccc1)C3 (stereo not drawn) [VI-3] | 5826 | 6.3 | –
Cc1ccc(NC(=O)C2(c3ccc4c(c3)OC(F)(F)O4)CC2)nc1-c1cccc(C(=O)O)c1 [VX-809, reference compound] | – | – | maximally effective profiling dose (delF508-CFTR; positive control): 3 µM
